In one experiment the target is T1, NLRP3 (Homo sapiens, UniProt Q96P20).
T1 construct: endogenous in cells; host or cells: THP-1 cells (IFN-γ differentiated, LPS primed, ATP stimulated)
The experiment is described as follows: IL-1β (interleukin-1β) secretion in IFN-γ-differentiated, LPS/ATP-stimulated THP-1 cells (half inhibition rate of NLRP3). The class given is cell-based. The conditions noted are these: IFN-γ 25 ng/mL, LPS 50 ng/mL, ATP 5 mM. The method, then:
Remove THP-1 cells from liquid nitrogen and place in a 37° C. water bath until ice melt. Add the cells to 5 mL of warm cell culture medium and centrifuge at 1,000 rpm for 5 min. Discard the supernatant and resuspend and culture in a new cell culture medium.
THP-1 cells are cultured in the culture medium and passaged every 2-3 days.
2.1.1 Add 100 μL of cell suspension per well to the cell plate and incubate the cell plate in a 37° C., 5% CO2 incubator for 24 hours.
2.2.1 Discard the supernatant of IFN-γ differentiation after differentiation treatment. Add 100 μL of serum-free medium containing LPS (final concentration of 50 ng/mL) to the cell plate. The cell plates were incubated in a 37° C., 5% CO2 incubator for 4 h.
Place the cell plate in an incubator at 37° C. and 5% CO2 for 1 hour.
2.2.3 Add 20 μL of 6×ATP per well according to the plate map (final concentration 5 mM) and incubate the cell plate in a 37° C., 5% CO2 incubator for 1 h. Collect the supernatant (60 μL) and store at −20° C.
The capture antibody mAb Mt175 is diluted to 2 μg/mL with PBS (1:250) and added to the cell plate at 15 μL per well. Keep the plate overnight at 4° C.
2.4.1 Discard the coated antibody and wash 4 times with PBST.
2.4.3 Discard the blocking buffer and wash 4 times with PBST.
2.4.4 Add 25 μL of 2.2.3 collected supernatant sample per well and incubate for 2 h at room temperature.
2.4.5 Discard the samples and wash 4 times with PBST.
2.4.6 Add mAb7P10-biotin (concentration 0.5 ug/mL) to blocking buffer, add 15 μL per well to the cell plate, and incubate for 1 hour at room temperature.
2.4.7 Discard the antibody and wash 4 times with PBST.
2.4.8 Streptavidin-HRP was diluted 1:1000 in blocking buffer, 15 μL per well was added to the cell plate, and incubated for 1 hour at room temperature.
2.4.9 Discard streptavidin-HRP and wash 4 times with PBST.
2.4.10 Add 25 μL of HRP substrate (Surmodics-TMBW-0100-01) per well and incubate the cell plate until a blue product appears.
2.4.11 Add 25 μL of stop solution (Surmodics-LSTP-0100-01) per well, and the blue product turns yellow.
2.4.12 Read the cell plate at 450 nm with a microplate reader.

In a further experiment the target is hERG potassium channel (Homo sapiens, UniProt Q12809). The experiment is described as follows: Whole-cell patch-clamp (QPatch) of hERG current in HEK293 cells stably expressing hERG. The class given is cell-based. The method, then: In this study, a whole-cell patch-clamp technique was used to study the inhibitory effect of compounds on hERG potassium channels and to evaluate the risk of ventricular repolarization toxicity.
The HEK293 cell line stably expressing the hERG potassium channel cells was purchased from Creacell, Inc. (Cat. No. A-0320).
The HEK293 cell line that can stably express the hERG potassium channel, was cultured in DMEM medium containing 10% fetal bovine serum and 0.8 mg/mL G418 at 37° C. and 5% carbon dioxide.
Before the test, the cells were separated with TrypLET Express, centrifuged after adding medium to terminate digestion, resuspended the cell count, adjusted the cell density to 2-3×10^6 cells/mL, and then lightly mixed the cells on a room temperature equilibration shaker for 15-20 min.
Electrophysiological assays were performed using a fully automated patch-clamp QPatch 48 X (Sophion) device. The prepared cells were placed on a centrifuge on the Qpatch bench, the cells were washed using multiple centrifugation/suspension methods, and the cell culture medium was replaced with extracellular fluid. Remove an MTP-96 plate and place it in the location of the MTP source. Remove the QPlate chip and subsequently place the QPlate at the Qplate source location. The robotic arm scans the MTP-96 board and the QPlate chip barcode and grabs it to the measuring station. Draw the intracellular and external fluid from the liquid pool and add them to the intracellular fluid pool, cell and test cell pool of the QPlate chip, respectively. At the measuring station, all measuring sites on the QPlate undergo initial quality control. The quality control process includes aspirating the cell suspension from the cell vessel of the centrifuge and positioning the cells to the chip wells via a pressure controller to establish a high-resistance seal and create a whole-cell recording pattern.
The voltage stimulation protocol for whole-cell patch-clamp recording of whole-cell hERG potassium currents is as follows: the cell membrane voltage clamps at −80 mV when a whole-cell closure is formed. The clamping voltage is depolarized from −80 mV to −50 mV for 0.5 s (as a leakage current detection), then steps to 30 mV for 2.5 s, and then quickly recovers to −50 mV for 4 s to excite the tail current of the hERG channel. The data were collected repeatedly every 10 s to observe the effect of the drug on the hERG tail current. −50 mV stimulation at 0.5 s was used as the leakage current detection. The test data is collected by Qpatch and stored in the connected service station.
First, the current after the effect of each drug concentration and the blank control current are normalized 0, and then the inhibition rate corresponding to each drug concentration is calculated.
Calculate the mean and standard error for each concentration and calculate the semi-inhibitory concentration for each compound using the following Formula:
Y=Bottom+(Top−Bottom)/(1+10^((LogIC50−X)*HillSlope)) The above Formula was used to fit the dose-dependent effect nonlinearly, where C represents the test substance concentration, IC50 is the semi-inhibitory concentration, and h represents the Hill coefficient. Curve fitting and IC50 calculations were performed using Graphpad software.
(In general: Patch clamp records ionic current or voltage across a cell membrane.)

Molecules are shown by their SMILES.

hERG potassium channel, sequence (Q12809 whole entry): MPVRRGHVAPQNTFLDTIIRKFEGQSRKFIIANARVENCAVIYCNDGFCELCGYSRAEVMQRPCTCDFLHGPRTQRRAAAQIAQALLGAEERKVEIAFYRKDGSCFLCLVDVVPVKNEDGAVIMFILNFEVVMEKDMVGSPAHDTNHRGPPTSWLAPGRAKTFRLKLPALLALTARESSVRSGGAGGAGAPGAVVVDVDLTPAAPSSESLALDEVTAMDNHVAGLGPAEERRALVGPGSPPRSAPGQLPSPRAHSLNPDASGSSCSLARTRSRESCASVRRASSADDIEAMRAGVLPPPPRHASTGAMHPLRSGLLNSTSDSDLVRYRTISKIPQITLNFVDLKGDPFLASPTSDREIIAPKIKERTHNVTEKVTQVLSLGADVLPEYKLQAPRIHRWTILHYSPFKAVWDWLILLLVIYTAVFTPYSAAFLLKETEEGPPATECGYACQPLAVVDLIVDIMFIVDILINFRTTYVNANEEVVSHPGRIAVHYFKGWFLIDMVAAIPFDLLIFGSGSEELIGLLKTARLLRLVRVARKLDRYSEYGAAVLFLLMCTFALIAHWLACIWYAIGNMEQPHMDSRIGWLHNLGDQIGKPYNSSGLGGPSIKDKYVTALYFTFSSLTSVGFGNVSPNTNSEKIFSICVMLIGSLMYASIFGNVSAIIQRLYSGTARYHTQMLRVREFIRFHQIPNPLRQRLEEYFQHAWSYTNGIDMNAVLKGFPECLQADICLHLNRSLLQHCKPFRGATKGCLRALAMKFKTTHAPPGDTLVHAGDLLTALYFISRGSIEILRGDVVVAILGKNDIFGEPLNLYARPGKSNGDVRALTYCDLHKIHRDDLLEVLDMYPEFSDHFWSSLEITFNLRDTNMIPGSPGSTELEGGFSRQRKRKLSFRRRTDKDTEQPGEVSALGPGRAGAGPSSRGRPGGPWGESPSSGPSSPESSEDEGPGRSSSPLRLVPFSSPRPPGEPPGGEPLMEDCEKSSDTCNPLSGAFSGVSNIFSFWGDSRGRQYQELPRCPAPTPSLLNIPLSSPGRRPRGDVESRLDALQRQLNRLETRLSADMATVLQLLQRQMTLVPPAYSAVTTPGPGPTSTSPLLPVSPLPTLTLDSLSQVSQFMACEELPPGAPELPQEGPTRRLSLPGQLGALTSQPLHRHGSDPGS
T1 sequence (Q96P20 whole entry): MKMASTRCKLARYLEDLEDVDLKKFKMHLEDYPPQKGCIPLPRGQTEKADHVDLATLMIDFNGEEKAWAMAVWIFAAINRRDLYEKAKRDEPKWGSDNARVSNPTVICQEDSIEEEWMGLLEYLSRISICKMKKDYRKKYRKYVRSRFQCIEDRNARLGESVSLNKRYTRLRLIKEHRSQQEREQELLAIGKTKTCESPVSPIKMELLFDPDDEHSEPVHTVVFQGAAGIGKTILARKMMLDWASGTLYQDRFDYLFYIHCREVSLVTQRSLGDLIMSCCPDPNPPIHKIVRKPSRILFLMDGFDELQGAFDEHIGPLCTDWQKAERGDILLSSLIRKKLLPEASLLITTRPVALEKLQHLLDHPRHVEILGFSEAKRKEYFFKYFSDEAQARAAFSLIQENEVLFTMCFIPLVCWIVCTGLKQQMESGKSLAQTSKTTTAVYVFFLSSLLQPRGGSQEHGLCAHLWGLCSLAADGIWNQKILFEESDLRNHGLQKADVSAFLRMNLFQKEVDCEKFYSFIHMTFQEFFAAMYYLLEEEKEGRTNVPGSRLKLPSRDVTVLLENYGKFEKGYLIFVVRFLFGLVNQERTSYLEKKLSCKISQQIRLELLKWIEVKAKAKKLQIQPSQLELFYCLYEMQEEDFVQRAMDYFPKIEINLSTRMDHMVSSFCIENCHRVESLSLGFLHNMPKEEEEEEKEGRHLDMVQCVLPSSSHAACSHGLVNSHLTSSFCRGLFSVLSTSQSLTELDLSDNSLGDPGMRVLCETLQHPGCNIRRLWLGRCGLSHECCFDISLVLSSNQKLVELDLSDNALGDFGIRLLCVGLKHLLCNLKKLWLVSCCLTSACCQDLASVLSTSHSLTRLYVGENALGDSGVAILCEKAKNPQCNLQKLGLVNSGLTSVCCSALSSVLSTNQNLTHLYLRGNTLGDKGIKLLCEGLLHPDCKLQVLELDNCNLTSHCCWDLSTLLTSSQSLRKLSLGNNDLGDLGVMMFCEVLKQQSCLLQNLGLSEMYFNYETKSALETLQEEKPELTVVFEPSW

In the case of `OCCN1CCC[C@@H](Nc2nnc(-c3ccc(Cl)cc3O)c3ccccc23)C1` [Embodiment 155], the IC50 against NLRP3 is 2.5 nM; at hERG potassium channel, over 30000 nM.

Take `Cc1nc(N[C@@H]2CCCN(C(C)CO)C2)nnc1-c1ccc(C(F)(F)F)cc1O` (stereo partly drawn) [Embodiment 43, 2-(3-(((3R)-1-(1-hydroxypropyl-2-yl)piperidin-3-yl)amino)-5-methyl-1,2,4-triazin-6-yl)-5-(trifluoromethyl)phenol]: the concentration for half-maximal inhibition (IC50) at NLRP3 was 6.5 nM; at hERG potassium channel, over 30000 nM.

Regarding `Oc1cc(C(F)(F)F)ccc1-c1nnc(N[C@@H]2CCCC[C@H]2O)c2ccccc12` [Embodiment 64], the IC50 is 4.7 nM at NLRP3 and over 30000 nM against hERG potassium channel.

For the compound `Cc1cc(C(F)(F)F)cc(O)c1-c1cnc(N[C@@H]2CCC[C@@H](O)C2)nn1` [Embodiment 39], the IC50 against hERG potassium channel was over 30000 nM.

Consider `Cc1nc(N[C@H]2C[C@@](C)(O)C2)nnc1-c1ccc(C(F)(F)F)cc1O` [Embodiment 37, 2-(3-(((cis)-3-hydroxy-3-methylcyclobutyl)amino)-5-methyl-1,2,4-triazin-6-yl)-5-(trifluoromethyl)phenol], for which the IC50 against NLRP3 is 27.3 nM; against hERG potassium channel it was over 30000 nM.

In the case of `Cc1cc(C(F)(F)F)cc(O)c1-c1cnc(N[C@@H]2CCCN(CCO)C2)nn1` [Embodiment 48, (R)-2-(3-((1-(2-hydroxyethyl)piperidin-3-yl)amino)-1,2,4-triazin-6-yl)-3-methyl-5-(trifluoromethyl)phenol], the IC50 is 9.1 nM at NLRP3 and over 30000 nM at hERG potassium channel.

Turning to `Cc1cc(Cl)cc(O)c1-c1cnc(N[C@@H]2CCCC[C@H]2O)nn1` [Embodiment 35, 5-Chloro-2-(3-(((1R,2R)-2-hydroxycyclohexyl)amino)-1,2,4-triazin-6-yl)-3-methylphenol], the figures for the IC50 on NLRP3 and at hERG potassium channel were 12.4 nM and over 30000 nM, respectively.

Consider `Cc1nc(N[C@@H]2CCCN(CC(C)(C)O)C2)nnc1-c1ccc(C(F)(F)F)cc1O` [Embodiment 133], for which the IC50 at NLRP3 was 6.6 nM; on hERG potassium channel, over 30000 nM.

In the case of `C[C@]1(O)C[C@@H](Nc2nnc(-c3ccc(C(F)(F)F)cc3O)c3cnccc23)C1` [Embodiment 78], the IC50 at NLRP3 was 2.8 nM; against hERG potassium channel, over 30000 nM.

On to `CC(CO)N1CCC[C@@H](Nc2nnc(-c3ccc(C(F)(F)F)cc3O)c3ccoc23)C1` (stereo partly shown) [Embodiment 130], for which the IC50 against NLRP3 was 1.9 nM; against hERG potassium channel, over 30000 nM.

At hERG potassium channel, `Cc1cc(N[C@@H]2CCCN(C)C2)nnc1-c1ccc(C(F)(F)F)cc1O` [Comparison 3] displayed an IC50 of under 10000 nM.

Regarding `Oc1cc(C(F)(F)F)ccc1-c1nnc(N[C@@H]2CCCC[C@H]2O)c2ncccc12` [Embodiment 70, 2-(8-(((1R,2R)-2-hydroxycyclohexyl)amino)pyrido[2,3-d]pyridazin-5-yl)-5-(trifluoromethyl)phenol], the half-inhibitory concentration (IC50) on NLRP3 was 5.3 nM; against hERG potassium channel, over 30000 nM.

With `Oc1cc(C(F)(F)F)ccc1-c1nnc(N[C@@H]2CCCC[C@H]2O)c2ccc(F)cc12` [Embodiment 137], the 50% inhibitory concentration (IC50) is 2 nM against NLRP3 and over 30000 nM against hERG potassium channel.

As for `Cc1nc(N[C@@H]2CCCN(C[C@@H](C)O)C2)nnc1-c1ccc(C(F)(F)F)cc1O` [Embodiment 150], the IC50 on NLRP3 is 9.9 nM; against hERG potassium channel, over 30000 nM.

As to `Cc1cc(C(F)(F)F)cc(O)c1-c1cnc(N[C@H]2C[C@@](C)(O)C2)nn1` [Embodiment 40, 2-(3-(((cis)-3-hydroxy-3-methylcyclobutyl)amino)-1,2,4-triazin-6-yl)-3-methyl-5-(trifluoromethyl)phenol], the half-maximal inhibitory concentration (IC50) against NLRP3 was 12.4 nM; against hERG potassium channel, over 30000 nM.

`CC(CO)N1CCC[C@@H](Nc2nnc(-c3ccc(C(F)(F)F)cc3O)c3occc23)C1` (stereo partly shown) [Embodiment 131]: the values for the half-inhibitory concentration (IC50) against NLRP3 and on hERG potassium channel were 7.3 nM and over 30000 nM, respectively.

For `CC(CO)N1CCC[C@@H](Nc2nnc(-c3ccc(C(F)(F)F)cc3O)c3cnccc23)C1` (stereo partly shown) [Embodiment 127], the values for the IC50 on NLRP3 and against hERG potassium channel were 3.5 nM and over 30000 nM, respectively.

In the case of `Cc1nc(N[C@@H]2CCCN(CCO)C2)nnc1-c1ccc(Cl)cc1O` [Embodiment 152], the IC50 at NLRP3 was 10.4 nM; at hERG potassium channel, over 30000 nM.

On to `OCCN1CCC[C@@H](Nc2nnc(-c3ccc(Cl)cc3O)c3ccc(F)cc23)C1` [Embodiment 153], for which the results for the IC50 at NLRP3 and at hERG potassium channel were 2.4 nM and over 30000 nM, respectively.

As to `C[C@]1(O)C[C@@H](Nc2nnc(-c3ccc(C(F)(F)F)cc3O)c3ccc(F)cc23)C1` [Embodiment 139], the half-inhibitory concentration (IC50) on NLRP3 is 1.9 nM; against hERG potassium channel it was over 30000 nM.

In the case of `Cc1cc(C)c(-c2cnc(N[C@@H]3CCCN(CCO)C3)nn2)c(O)c1` [Embodiment 2, (R)-2-(3-((1-(2-hydroxyethyl)piperidin-3-yl)amino)-1,2,4-triazin-6-yl)-3,5-dimethylphenol], the IC50 against NLRP3 was 40.2 nM; against hERG potassium channel it was over 30000 nM.

In the case of `Cc1cc(C(F)(F)F)cc(O)c1-c1cnc(N[C@@H]2CCCN(C(C)CO)C2)nn1` (stereo partly drawn) [Embodiment 47, 2-(3-(((3R)-1-(1-hydroxypropyl-2-yl)piperidin-3-yl)amino)-1,2,4-triazin-6-yl)-3-methyl-5-(trifluoromethyl)phenol], the IC50 is 4.6 nM against NLRP3 and over 30000 nM at hERG potassium channel.

As for `Oc1cc(C(F)(F)F)ccc1-c1nnc(N[C@@H]2CCCC[C@H]2O)c2c(F)cccc12` [Embodiment 135], the IC50 against NLRP3 was 5.1 nM; against hERG potassium channel, over 30000 nM.

The compound `Oc1cc(C(F)(F)F)ccc1-c1nnc(N[C@@H]2CCCC[C@H]2O)c2cccnc12` [Embodiment 71] showed an IC50 against NLRP3 of 92.8 nM.

Consider `Cc1cc(C)c(-c2cnc(N[C@@H]3CCCN(C4CC4)C3)nn2)c(O)c1` [Embodiment 6, (R)-2-(3-((1-cyclopropylpiperidin-3-yl)amino)-1,2,4-triazin-6-yl)-3,5-dimethylphenol], for which the IC50 at NLRP3 is 7.4 nM; at hERG potassium channel it was over 30000 nM.

Take `CCN1CCC[C@@H](Nc2nnc(-c3ccc(C(F)(F)F)cc3O)c(C)n2)C1` [Embodiment 143]: inhibition on NLRP3 was half-maximal at 0.9 nM (IC50). This lies in the sub-nanomolar range.

In the case of `CC(CO)N1CCC[C@@H](Nc2nnc(-c3ccc(C(F)(F)F)cc3O)c3ccncc23)C1` (stereo partly shown) [Embodiment 126], the 50% inhibitory concentration (IC50) is 3.9 nM against NLRP3 and over 30000 nM against hERG potassium channel.

On NLRP3, `CN1CCC[C@@H](Nc2nnc(-c3ccc(C(F)(F)F)cc3O)c3cc(F)ccc23)C1` [Embodiment 121] displayed a half-inhibitory concentration (IC50) of 1.2 nM.

Consider `Cc1cc(C)c(-c2cnc(N[C@@H]3CCCN(C(C)CO)C3)nn2)c(O)c1` (stereo partly drawn) [Embodiment 22, 2-(3-(((3R)-1-(1-hydroxypropyl-2-yl)piperidin-3-yl)amino)-1,2,4-triazin-6-yl)-3,5-dimethylphenol], for which the IC50 at NLRP3 came to 24 nM. Compared with the last compound, the IC50 is about 20-fold higher.

By IC50 is commonly meant the concentration at which inhibition is half-maximal.
